Laboratory results taken from patent publication US9451909B2, “System and method for detecting amyloid proteins” (Cognoptix, Inc., priority 2010, dated 2016).

What was measured:
[1] = target: T1, aggregated Aβ(1-42) peptide (Homo sapiens, UniProt P05067); experiment: In vitro fluorescence lifetime measurements of Compound #11 with aggregated Aβ peptide (SAPPHIRE II device); format: binding
T1 construct: Aggregated Aβ peptide was prepared by dissolving Aβ(1-42) in PBS pH 7.4
Description: (§1) In accordance with an embodiment of the invention, in vitro studies on aggregated Aβ peptides bound to Compound #11 were performed. Fluorescence lifetime measurements of Compound #11 with aggregated Aβ peptide were performed using a device in accordance with an embodiment of the invention. FIG. 8A is a fluorescence lifetime image showing Compound #11 and Compound #11 bound to aggregated Aβ peptide, with their corresponding fluorescence lifetime histograms shown in FIG. 8B, in accordance with an embodiment of the invention. By fitting the lifetime histograms, the decay rates are determined. […] An experimental description follows.
(§2) The purpose of this in vitro study was to identify the optical signature of the Compound #11 amyloid-binding compound, and to characterize its fluorescence properties when bound to aggregated Aβ peptide. […]
(§3) The Neuroptix SAPPHIRE II device (Neuroptix Corporation, Acton, Mass., U.S.A.) is a purpose built device for clinical studies in humans, which was adapted for in vitro measurements for this experiment. It employs a confocal scanning mechanism combined with fluorescence lifetime spectroscopy that allows differentiation of fluorophores. The device allows 1) scanning of the optical beam to specific locations in the anterior segments of the eye, such as the supranucleus and 2) identification of fluorescent fluorophores based on fluorescence lifetime measurements.
(§4) Aggregated Aβ peptide was prepared by dissolving Aβ(1-42) in PBS pH 7.4 to a final concentration of 100 μM. […] The solution was transferred to 5 mL vial and the fluorescence measurements were performed at 25° C.
(§5) The sample consisting of Compound #11 was placed in front of the Neuroptix SAPPHIRE II Device. Once the location of the scan in the sample was determined, a raster scan was performed to obtain fluorescence lifetime measurements. […] The shading that makes up most of the image background represents a lifetime decay of 1.4 nsec, which corresponds to that of the fluorescence amyloid-binding compound. […]

[2] = test system: aggregated Aβ(1-42) peptide; experiment: as above; format: binding; conditions: unbound; 4 μM Compound #11, PBS, 25° C.
Description: as §1, §2, §3, §4, §5

[3] = Ocular pharmacokinetics study, topical ointment, fluorescence lifetime and intensity measurements in the lens; format: in vivo, Dutch-belted rabbits
Description: Ocular pharmacokinetic investigation of dose response via topical administration of fluorescence amyloid-binding compound was performed in Dutch-belted rabbits. The rabbits were tested each day over a 4 day period using Compound #11 amyloid-binding compound in an ointment. Two animals were dosed in the right eye with Compound #11 (0.5%) in ointment form. One animal was untreated and used as control animal. The animals were dosed at specific time points for four days and tested with SAPPHIRE II system for fluorescence intensity and lifetime measurements at the beginning and end of each day.
All animals were dosed with Compound #11 via topical ocular application and tested in the right eye. Animals were anesthetized and manually held on a platform in front of the Neuroptix SAPPHIRE II device. Gross positioning was done by the animal handler, and fine tuning of the measurement location was done by the Neuroptix SAPPHIRE II operator. Once aligned, the SAPPHIRE II operator initiated the measurement sequence. Baseline measurements were made on the animals before dosing, and then at the beginning and end of each day (Table 1).
Fluorescence lifetime and intensity measurements were performed in the eye at the beginning and at the end of each day. The measurements entailed scanning the rabbit eye axially (z-scan) to obtain inter-ocular information and a planar scan (xy-scan) to perform lifetime decay measurements in a certain region of the eye, which is the lens nucleus in this case.
Once the location of interest was identified, Time Correlation Single Photon Counting (TCSPS) was initiated while performing the xy-scan. The fluorescence lifetime images were then obtained where the decay lifetime histogram was obtained for each pixel location. The calculated decay times were color coded in the fluorescence lifetime image. Each measurement was performed three times. The frequency count of photons of specific decay rates were calculated from the decay rates frequency that of the Compound #11 signature obtained in the xy-scan and averaged over the three measurements. […] The device was specifically designed for human use but the platform was slightly modified for holding the rabbits.
Group 1: Animals were anesthetized with subcutaneous injection of Dexdomitor (0.5 mg/kg), Ketamine (5 mg/kg). A ribbon of ointment approximately ½ inch long was then applied to the lower right eyelid of each animal in the test group three times a day for four days.

[4] = Fluorescence spectra and fluorescence lifetime histogram of Compound #11; format: physicochemical
Text: In an embodiment according to the invention, the light source may be configured to emit light of an appropriate wavelength for a peak region of a fluorescent excitation spectrum for the amyloid-binding compound bound to the amyloid protein in the eye, and the optical unit may be configured to detect light of an appropriate wavelength for a peak region of a fluorescent emission spectrum for the amyloid-binding compound bound to the amyloid protein in the eye. For example, where the amyloid-binding compound is Compound #11, the excitation spectrum has a peak of about 470 nm, and the light source may be configured to emit light within plus or minus about 20 nm of the peak of about 470 nm, such as within plus or minus 5 nm, plus or minus 10 nm, plus or minus 15 nm or plus or minus 20 nm of 470 nm. Further, the emission spectrum for Compound #11 has a peak of about 580 nm, and the optical unit may be configured to detect light within plus or minus about 20 nm of the peak of about 580 nm, such as within plus or minus 5 nm, plus or minus 10 nm, plus or minus 15 nm or plus or minus 20 nm of 580 nm. In general, there is typically a shift between the peak of the excitation spectrum and the peak of the emission spectrum of a fluorescent compound. […] For example, an emission spectrum having a peak greater than about 500 nm is advantageous for distinguishing from the natural autofluorescence of the eye. […] FIG. 12 is an emission spectrum of the fluorescent amyloid-binding compound Compound #11 when excited at 470 nm, in accordance with an embodiment of the invention. Other excitation and emission spectra that may be used will be apparent to those of skill in the art based on the foregoing.
A fluorescent histogram of the fluorescent amyloid-binding compound Compound #11 is shown in FIG. 6, obtained by a device in accordance with an embodiment of the invention. Single exponential fitting results in a lifetime decay rate of 2 nsec.

[5] = target: aggregated beta-amyloid (Aβ) peptide (Homo sapiens, UniProt P05067); conditions: cited from earlier work
Sequence of aggregated beta-amyloid (Aβ) peptide (P05067 672-713 limits assumed): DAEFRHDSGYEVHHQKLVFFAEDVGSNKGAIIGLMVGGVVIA

T1 sequence (P05067 672-713): as the sequence (P05067 672-713 limits assumed) above

Compound: COCCOCCOCCOC(=O)/C(C#N)=C/c1ccc2cc(N3CCCCC3)ccc2c1 [Compound #11, (E)-2-(2-(2-methoxyethoxy)ethoxy)ethyl-2-cyano-3-(6-(piperidin-1-yl)naphthalen-2-yl)acrylate]
- difference in fluorescence lifetime, bound vs unbound ([1]; Compound #11 vs Compound #11 bound to aggregated Aβ peptide): 0.85 nsec
- fluorescence lifetime decay (time decay rate) of compound bound to aggregated Aβ peptide ([1]; bound to aggregated Aβ(1-42) 5 μM, 4 μM Compound #11, 25° C.): 2.25 nsec
- fluorescence lifetime decay (time decay rate) of unbound compound [2]: 1.4 nsec
- fluorescence signal after repetitive topical administration ([3]; 5 mg/g in ointment form, three times a day for four days): Detectable fluorescence signal
- decay rate in lifetime image of the lens (xy-scan) ([3]; animal 1003, end of fourth day): 2 nsec
- change of fluorescence in the lens nucleus over four days ([3]; measured at beginning and end of each day, 4 days, rabbits 1002 and 1003): increase of Compound #11 fluorescence
- time of stay in the lens nucleus ([3]; repetitive topical administration): at least 12 hours
- accumulation in the lens nucleus ([3]; repetitive topical administration, after several hours of application): tended to accumulate in the nucleus
- penetration of the cornea and detection in the lens ([3]; topical ocular, rabbit eyes): penetrate the cornea and be detected by the device in the lens
- excitation spectrum peak [4]: about 470 nm
- emission spectrum peak ([4]; excited at 470 nm): about 580 nm
- lifetime decay rate ([4]; single exponential fitting of fluorescent histogram (FIG. 6)): 2 nsec
- binding to aggregated beta-amyloid (Aβ) peptide [5]: has been shown to bind
